What all share (assay): Z'-LYTE fluorescence kinase assay, single point
Common to all, as to assay type: biochemical

One assay has as its target T1, ROCK2 (Homo sapiens, UniProt O75116).
T1 construct: commercial kinase panel (Z'-LYTE, Thermo Fisher)
The note with it: read-out: VS2. The source says: Z'-LYTE fluorescence kinase assay, single point on ROCK2

The next assay has as its target T2, LRKK2 (Homo sapiens, UniProt Q5S007).
T2 construct: gene LRRK2; commercial kinase panel (Z'-LYTE, Thermo Fisher)
The source says:
Z'-LYTE fluorescence kinase assay, single point on LRKK2

The target of the next assay is T3, CSF1R (Homo sapiens, UniProt P07333).
T3 construct: commercial kinase panel (Z'-LYTE, Thermo Fisher)
T3 sequence (P07333 20-972): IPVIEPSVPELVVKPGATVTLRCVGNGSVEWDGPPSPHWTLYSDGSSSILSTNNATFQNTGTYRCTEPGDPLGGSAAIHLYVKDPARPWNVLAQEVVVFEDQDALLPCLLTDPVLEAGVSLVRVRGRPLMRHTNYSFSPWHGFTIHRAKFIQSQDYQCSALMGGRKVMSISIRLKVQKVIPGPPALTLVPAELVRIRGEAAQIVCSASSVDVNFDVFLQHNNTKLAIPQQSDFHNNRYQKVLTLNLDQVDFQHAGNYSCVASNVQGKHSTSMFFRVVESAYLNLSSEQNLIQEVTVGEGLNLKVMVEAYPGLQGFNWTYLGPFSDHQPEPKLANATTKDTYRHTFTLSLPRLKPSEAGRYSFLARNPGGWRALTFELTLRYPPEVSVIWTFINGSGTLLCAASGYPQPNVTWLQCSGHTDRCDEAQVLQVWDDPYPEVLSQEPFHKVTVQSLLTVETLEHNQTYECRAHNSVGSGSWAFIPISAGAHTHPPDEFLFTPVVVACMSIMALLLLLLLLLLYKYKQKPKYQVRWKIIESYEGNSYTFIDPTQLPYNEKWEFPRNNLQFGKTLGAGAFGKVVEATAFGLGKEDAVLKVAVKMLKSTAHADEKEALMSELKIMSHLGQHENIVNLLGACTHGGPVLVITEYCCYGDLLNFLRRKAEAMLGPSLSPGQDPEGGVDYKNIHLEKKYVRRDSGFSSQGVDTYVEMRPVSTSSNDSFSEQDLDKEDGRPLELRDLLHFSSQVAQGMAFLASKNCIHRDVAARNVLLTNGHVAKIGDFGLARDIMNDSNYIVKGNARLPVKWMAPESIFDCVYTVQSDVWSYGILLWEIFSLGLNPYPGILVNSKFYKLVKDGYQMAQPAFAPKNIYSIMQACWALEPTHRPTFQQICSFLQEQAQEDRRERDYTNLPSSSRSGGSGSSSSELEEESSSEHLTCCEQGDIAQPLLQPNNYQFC
The text has this:
Z'-LYTE fluorescence kinase assay, single point on CSF1R

Another assay has as its target T4, MAPK8 (Homo sapiens, UniProt P45983).
T4 construct: commercial kinase panel (Z'-LYTE, Thermo Fisher)
The following applies: read-out: VS6. The text has this:
Z'-LYTE fluorescence kinase assay, single point on MAPK8

The next assay addresses T5, SYK (Homo sapiens, UniProt P43405).
T5 construct: commercial kinase panel (Z'-LYTE, Thermo Fisher)
The source says:
Z'-LYTE fluorescence kinase assay, single point on SYK

The target in the next assay is T6, PTK2 (Homo sapiens, UniProt Q05397).
T6 construct: commercial kinase panel (Z'-LYTE, Thermo Fisher)
The following applies: read-out: VS7. The source says: Z'-LYTE fluorescence kinase assay, single point on PTK2

The next assay deals with T7, LCK (Homo sapiens, UniProt P06239).
T7 construct: commercial kinase panel (Z'-LYTE, Thermo Fisher)
The following applies: read-out: VS7. The text has this: Z'-LYTE fluorescence kinase assay, single point on LCK

The target of another assay is T8, IRAK4 (Homo sapiens, UniProt Q9NWZ3).
T8 construct: commercial kinase panel (Z'-LYTE, Thermo Fisher)
T8 sequence (Q9NWZ3 1-460): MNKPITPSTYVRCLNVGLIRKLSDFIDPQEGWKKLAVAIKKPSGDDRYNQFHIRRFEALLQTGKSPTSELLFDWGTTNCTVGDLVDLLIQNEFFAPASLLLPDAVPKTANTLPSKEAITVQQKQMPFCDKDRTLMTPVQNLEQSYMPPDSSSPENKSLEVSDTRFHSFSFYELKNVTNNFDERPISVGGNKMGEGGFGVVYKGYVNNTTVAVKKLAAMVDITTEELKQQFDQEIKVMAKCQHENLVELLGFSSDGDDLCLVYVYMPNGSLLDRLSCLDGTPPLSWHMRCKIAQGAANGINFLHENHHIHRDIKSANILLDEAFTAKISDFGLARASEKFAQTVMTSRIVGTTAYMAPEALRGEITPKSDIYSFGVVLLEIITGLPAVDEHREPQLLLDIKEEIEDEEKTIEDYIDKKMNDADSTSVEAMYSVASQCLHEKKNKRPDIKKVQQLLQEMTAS
The following applies: read-out: VS7. The source says: Z'-LYTE fluorescence kinase assay, single point on IRAK4

For another assay, the target named is T9, NTRK1 (Homo sapiens, UniProt P04629).
T9 construct: commercial kinase panel (Z'-LYTE, Thermo Fisher)
T9 sequence (P04629 33-796): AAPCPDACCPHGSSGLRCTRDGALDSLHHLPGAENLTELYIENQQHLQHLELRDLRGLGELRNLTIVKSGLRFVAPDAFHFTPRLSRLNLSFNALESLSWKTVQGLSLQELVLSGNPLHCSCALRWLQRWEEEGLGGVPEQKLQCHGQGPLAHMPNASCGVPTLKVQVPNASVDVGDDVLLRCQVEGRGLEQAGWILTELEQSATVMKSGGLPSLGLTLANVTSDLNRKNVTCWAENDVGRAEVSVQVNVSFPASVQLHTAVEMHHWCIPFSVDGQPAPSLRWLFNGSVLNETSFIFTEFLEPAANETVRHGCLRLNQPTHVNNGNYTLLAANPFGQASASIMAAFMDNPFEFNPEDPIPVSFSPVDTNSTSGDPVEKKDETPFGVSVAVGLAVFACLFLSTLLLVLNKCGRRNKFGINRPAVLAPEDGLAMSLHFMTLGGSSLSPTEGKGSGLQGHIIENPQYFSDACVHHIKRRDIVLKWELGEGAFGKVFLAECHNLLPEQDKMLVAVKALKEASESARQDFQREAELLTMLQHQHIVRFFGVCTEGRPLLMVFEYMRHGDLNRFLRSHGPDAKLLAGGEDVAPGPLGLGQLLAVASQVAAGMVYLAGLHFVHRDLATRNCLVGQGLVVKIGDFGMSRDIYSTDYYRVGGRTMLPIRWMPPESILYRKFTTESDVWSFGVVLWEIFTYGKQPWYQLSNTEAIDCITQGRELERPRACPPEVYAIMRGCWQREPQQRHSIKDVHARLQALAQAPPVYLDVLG
The following applies: read-out: VS7. The source says: Z'-LYTE fluorescence kinase assay, single point on NTRK1

The structures appear in SMILES notation. Read-outs that look alike come from different tables or passages of the source.

T2 sequence (Q5S007 whole entry): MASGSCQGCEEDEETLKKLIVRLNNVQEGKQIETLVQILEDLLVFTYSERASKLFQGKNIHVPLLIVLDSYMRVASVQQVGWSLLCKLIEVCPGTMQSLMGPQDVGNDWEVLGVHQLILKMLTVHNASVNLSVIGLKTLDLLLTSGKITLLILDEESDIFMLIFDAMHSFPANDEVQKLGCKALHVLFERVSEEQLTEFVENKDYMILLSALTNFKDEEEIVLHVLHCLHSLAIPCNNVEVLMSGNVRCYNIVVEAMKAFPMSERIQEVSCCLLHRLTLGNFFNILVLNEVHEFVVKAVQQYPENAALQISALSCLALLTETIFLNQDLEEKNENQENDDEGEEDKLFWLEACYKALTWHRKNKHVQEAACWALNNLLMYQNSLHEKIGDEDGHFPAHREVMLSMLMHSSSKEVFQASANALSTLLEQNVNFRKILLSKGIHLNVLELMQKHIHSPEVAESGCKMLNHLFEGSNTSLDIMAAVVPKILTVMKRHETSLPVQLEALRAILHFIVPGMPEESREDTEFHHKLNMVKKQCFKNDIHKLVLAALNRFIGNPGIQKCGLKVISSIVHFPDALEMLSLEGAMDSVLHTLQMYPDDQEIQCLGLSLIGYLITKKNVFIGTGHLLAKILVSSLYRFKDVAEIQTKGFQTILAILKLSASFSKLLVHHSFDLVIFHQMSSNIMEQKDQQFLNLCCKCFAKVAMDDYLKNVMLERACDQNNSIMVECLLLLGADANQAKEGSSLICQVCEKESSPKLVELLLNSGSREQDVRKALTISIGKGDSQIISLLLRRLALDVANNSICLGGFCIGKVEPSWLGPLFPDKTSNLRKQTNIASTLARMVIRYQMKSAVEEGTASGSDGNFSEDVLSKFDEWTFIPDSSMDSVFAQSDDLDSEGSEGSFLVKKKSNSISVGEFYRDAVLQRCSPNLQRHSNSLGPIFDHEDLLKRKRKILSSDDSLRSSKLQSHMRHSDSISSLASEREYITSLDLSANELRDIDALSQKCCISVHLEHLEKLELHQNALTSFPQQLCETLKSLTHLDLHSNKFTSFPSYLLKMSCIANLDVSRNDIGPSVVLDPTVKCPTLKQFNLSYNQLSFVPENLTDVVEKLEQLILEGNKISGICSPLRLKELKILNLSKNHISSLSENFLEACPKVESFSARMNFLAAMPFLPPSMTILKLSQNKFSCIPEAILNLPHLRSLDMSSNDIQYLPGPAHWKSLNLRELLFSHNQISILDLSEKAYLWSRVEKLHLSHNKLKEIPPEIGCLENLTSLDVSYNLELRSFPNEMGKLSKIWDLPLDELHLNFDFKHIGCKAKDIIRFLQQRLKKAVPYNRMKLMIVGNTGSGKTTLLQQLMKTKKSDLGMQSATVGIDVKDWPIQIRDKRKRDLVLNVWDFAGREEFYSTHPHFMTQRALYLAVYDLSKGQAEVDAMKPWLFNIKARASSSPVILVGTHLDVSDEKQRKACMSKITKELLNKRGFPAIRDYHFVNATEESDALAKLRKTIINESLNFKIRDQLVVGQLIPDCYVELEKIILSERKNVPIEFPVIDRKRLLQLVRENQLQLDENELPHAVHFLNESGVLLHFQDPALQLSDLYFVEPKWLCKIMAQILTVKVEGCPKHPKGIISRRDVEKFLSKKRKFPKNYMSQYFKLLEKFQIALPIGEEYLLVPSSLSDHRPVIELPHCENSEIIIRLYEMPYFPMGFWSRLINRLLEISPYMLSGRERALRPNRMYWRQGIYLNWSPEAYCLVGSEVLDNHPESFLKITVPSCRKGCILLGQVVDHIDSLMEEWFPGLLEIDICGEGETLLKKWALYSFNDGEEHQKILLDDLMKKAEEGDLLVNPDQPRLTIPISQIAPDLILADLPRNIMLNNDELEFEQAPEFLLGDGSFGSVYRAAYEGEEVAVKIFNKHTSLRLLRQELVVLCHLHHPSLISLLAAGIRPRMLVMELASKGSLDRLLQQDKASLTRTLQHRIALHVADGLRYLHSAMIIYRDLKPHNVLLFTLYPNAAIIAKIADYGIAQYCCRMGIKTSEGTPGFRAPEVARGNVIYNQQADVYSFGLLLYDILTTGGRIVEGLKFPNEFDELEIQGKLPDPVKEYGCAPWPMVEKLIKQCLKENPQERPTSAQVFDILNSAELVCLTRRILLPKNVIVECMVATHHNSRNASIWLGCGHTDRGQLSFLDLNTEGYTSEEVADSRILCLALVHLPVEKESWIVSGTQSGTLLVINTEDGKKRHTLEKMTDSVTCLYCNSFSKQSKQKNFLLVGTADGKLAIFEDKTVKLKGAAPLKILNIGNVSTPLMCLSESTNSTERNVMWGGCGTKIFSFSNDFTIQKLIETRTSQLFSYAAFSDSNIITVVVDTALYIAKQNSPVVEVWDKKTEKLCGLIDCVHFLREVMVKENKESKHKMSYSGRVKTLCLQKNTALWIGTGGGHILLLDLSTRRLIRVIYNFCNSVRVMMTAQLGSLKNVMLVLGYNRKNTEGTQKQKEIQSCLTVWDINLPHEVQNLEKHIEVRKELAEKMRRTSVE
T4 sequence (P45983 whole entry): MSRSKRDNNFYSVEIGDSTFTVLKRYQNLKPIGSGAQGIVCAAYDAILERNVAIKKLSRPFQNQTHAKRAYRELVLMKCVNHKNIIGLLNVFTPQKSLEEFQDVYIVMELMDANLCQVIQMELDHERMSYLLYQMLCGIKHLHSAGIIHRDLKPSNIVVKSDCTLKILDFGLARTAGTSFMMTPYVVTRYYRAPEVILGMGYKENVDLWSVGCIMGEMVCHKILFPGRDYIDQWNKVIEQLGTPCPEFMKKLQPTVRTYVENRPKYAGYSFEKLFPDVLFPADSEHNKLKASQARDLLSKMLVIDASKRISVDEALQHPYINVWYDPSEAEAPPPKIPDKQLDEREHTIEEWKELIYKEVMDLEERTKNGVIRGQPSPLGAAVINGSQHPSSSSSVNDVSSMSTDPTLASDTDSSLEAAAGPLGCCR

`O=C(Nc1ccncc1)c1cccc(C(F)(F)F)c1` [VS2]: the figures for the inhibition at 10 µM on ROCK2 and on LRKK2 (read-out: VS2) were 74% and 50%, respectively.

In the case of `COc1cc(/C=C(/C#N)C(=O)c2ccccc2)ccc1O` [VS3], the inhibition at 10 µM on LRKK2 (read-out: VS3) is 54%.

For `Cc1cc(C(=O)Nc2scc(-c3ccc(C)c(C)c3)c2C(N)=O)no1` [VS5], on CSF1R (read-out: VS5), the inhibition at 10 µM came out at 54%.

With `c1ccc(Nc2nccc(-c3ccsc3)n2)cc1` [VS6], the inhibition at 10 µM at CSF1R (read-out: VS6) came out at 89%; at MAPK8, 63%; at SYK (read-out: VS6), 57%; at LRKK2 (read-out: VS6) it was 60%.

`NC(=O)c1ccc(Nc2nc(NCc3ccco3)c3ccccc3n2)cc1` [VS7]: the inhibition at 10 µM on PTK2 was 66%; at CSF1R (read-out: VS6), 89%; on LCK, 53%; on IRAK4, 80%; on SYK (read-out: VS7), 90%; on NTRK1 it was 90%. Also, the inhibition at 10 µM on LRKK2 (read-out: VS7) stood at 100%.

Values taken from article PMC11900317, “KinasePred: A Computational Tool for Small-Molecule Kinase Target Prediction” (International Journal of Molecular Sciences, 2025).
